Paper PMC4138103 (PLoS ONE, 2014)
Where two headings read alike, the source gives them in different places.

Columns and labels:
rats = tested on: rats; design: method as in PMID 8935785; details: dietary exposure 90 days; cited from earlier work
human TTR [1] = target: T1, human TTR (Homo sapiens, UniProt P02766); experiment: Competition with [125I]-T4 for binding to transthyretin; details: for Relative potency (REP), Exp 1 / Relative potency (REP), Exp 2 / Relative potency (REP), Mean: TTR binding relative to T4; for IC50: TTR binding, [125I]-T4 competition
T1 construct: purchased Sigma Aldrich
Procedure: Full dose-response curves within the range of 1–100 nM were determined for each OH-PCB metabolite.

human TTR [2] = target: T1, human TTR; experiment: as above; details: @100 nM
HepG2 cells = tested on: HepG2 cells; design: method as in Al-Anati et al., in preparation; details: ref Al-Anati et al., in preparation; cited from earlier work
[3] = read-out: IC50, Full dose-resonse experiments, Exp 1
[4] = read-out: IC50, Full dose-resonse experiments, Exp 2

Structure (SMILES): Clc1cc(Cl)c(-c2cc(Cl)c(Cl)cc2Cl)cc1Cl [PCB 153, 2,2′,4,4′,5,5′-hexachlorobiphenyl]
- NOAEL (rats): 0.5 mg/kg diet
- NOAEL, equivalent daily dose (rats): 34 µg/kg bw/day
- NOAEL, equivalent total dose (rats): 3.1 mg/kg bw

Structure (SMILES): Oc1c(Cl)cc(-c2cc(Cl)c(Cl)c(Cl)c2Cl)c(Cl)c1Cl [4'-OH-PCB 172]
- Relative potency (REP), Exp 1 (human TTR [1]): 5.37
- Relative potency (REP), Exp 2 (human TTR [1]): 3.90
- Relative potency (REP), Mean (human TTR [1]): 4.64
- IC50 (human TTR [1]; n = 2, read-out: IC50, Mean): 13 nM
- IC50 (human TTR [1]; [3]): 11.9 nM
- IC50 (human TTR [1]; [4]): 14.1 nM
- T4 displacement, Pilot experiment (human TTR [2]): 95% T4 displacement @100 nM

Structure (SMILES): Oc1c(Cl)cc(Cl)c(-c2cc(Cl)c(Cl)c(Cl)c2Cl)c1Cl [3' OH-PCB 182]
- Relative potency (REP), Exp 1 (human TTR [1]): 3.68
- Relative potency (REP), Exp 2 (human TTR [1]): 2.68
- Relative potency (REP), Mean (human TTR [1]): 3.18
- IC50 (human TTR [1]; n = 2, read-out: IC50, Mean): 19 nM
- IC50 (human TTR [1]; [3]): 17.4 nM
- IC50 (human TTR [1]; [4]): 20.5 nM
- T4 displacement, Pilot experiment (human TTR [2]): 93% T4 displacement @100 nM

Structure (SMILES): Oc1c(Cl)c(Cl)cc(-c2cc(Cl)c(Cl)c(Cl)c2Cl)c1Cl [3'-OH-PCB 180]
- Relative potency (REP), Exp 1 (human TTR [1]): 3.96
- Relative potency (REP), Exp 2 (human TTR [1]): 2.84
- Relative potency (REP), Mean (human TTR [1]): 3.40
- IC50 (human TTR [1]; n = 2, read-out: IC50, Mean): 17.8 nM
- IC50 (human TTR [1]; [3]): 16.2 nM
- IC50 (human TTR [1]; [4]): 19.4 nM
- T4 displacement, Pilot experiment (human TTR [2]): 95% T4 displacement @100 nM
- Expression of DNA damage markers pChk1Ser317 and γH2AXSer319 (HepG2 cells): induced

Structure (SMILES): Oc1c(Cl)c(Cl)c(Cl)c(-c2cc(Cl)c(Cl)cc2Cl)c1Cl [5-OH-PCB 183]
- Relative potency (REP), Exp 1 (human TTR [1]): 3.54
- Relative potency (REP), Exp 2 (human TTR [1]): 2.61
- Relative potency (REP), Mean (human TTR [1]): 3.08
- IC50 (human TTR [1]; n = 2, read-out: IC50, Mean): 19.6 nM
- IC50 (human TTR [1]; [3]): 18.1 nM
- IC50 (human TTR [1]; [4]): 21.1 nM
- T4 displacement, Pilot experiment (human TTR [2]): 92% T4 displacement @100 nM
